Test results from US10561733B2, “Process for producing nanoparticles laden with active ingredient” (Merck Patent GmbH, priority 2012, dated 2020).

Experiment: Visual solubility in organic solvent on successive addition of water
Format: physicochemical
Details: 1 mg/100 μl in THF, ACN, acetone, DMSO, DMF, methanol, ethanol; 10 μl water added successively until precipitation
Protocol: If the active compound is insoluble in an organic solvent, this solvent is less suitable for the production of nanoparticles. If a clear solution is formed, in each case equal defined amounts of aqueous solvent are added stepwise and mixed in each case until precipitation of the active compound is visible after addition and mixing (visual solubility). The assessment of visual solubility is carried out visually in a suitable container, preferably in a glass tube having a small diameter, for example as are customary in gas chromatography (diameter of 0.5 cm, height 3 cm), under cold light, which preferably radiates upward, against a dark surface, preferably against a black surface, as background. A diagrammatic representation of the procedure is depicted in FIG. 1.
For loading experiments, the active compounds dexamethasone and 5-[2-(2-fluorophenyl)-1,8-naphthyridin-4-yl]-2,6-naphthyridin-1-ylamine (also called active compound B below) were used. For solvent selection, the active compounds were each dissolved in the following solvents with a concentration of 1 mg/100 μl: tetrahydrofuran (THF), acetonitrile (ACN), acetone, dimethyl sulfoxide (DMSO), dimethylformamide (DMF), methanol, ethanol. Additionally, 0.1% of trifluoroacetic acid (v/v) were added to each organic solution of active compound B in order to establish an apparent “pH”. […]

Question: Which visual solubility does the source give for `C[C@@H]1C[C@H]2[C@@H]3CCC4=CC(=O)C=C[C@]4(C)[C@@]3(F)[C@@H](O)C[C@]2(C)[C@@]1(O)C(=O)CO` [dexamethasone] here?
Answer: increased visual solubility in tetrahydrofuran
